According to ChEMBL document CHEMBL3612014, “Discovery of Tyk2 inhibitors via the virtual site-directed fragment-based drug design” (Bioorg Med Chem Lett, 2015):
One block for each compound: values may come before it.

Key:
[1] = molecular target: T1, Non-receptor tyrosine-protein kinase TYK2 (Homo sapiens, UniProt P29597); assay: Inhibition of Tyk2 (unknown origin) at 100 uM
[2] = molecular target: T1, Non-receptor tyrosine-protein kinase TYK2; assay: Inhibition of Tyk2 (unknown origin) at 30 uM
[3] = molecular target: T1, Non-receptor tyrosine-protein kinase TYK2; assay: Inhibition of Tyk2 (unknown origin) at 3 uM
[4] = molecular target: T1, Non-receptor tyrosine-protein kinase TYK2; assay: Inhibition of Tyk2 (unknown origin) at 10 uM
[5] = molecular target: T1, Non-receptor tyrosine-protein kinase TYK2; assay: Inhibition of Tyk2 (unknown origin)
[6] = molecular target: Serine/threonine-protein kinase PAK 4 (Homo sapiens) (UniProt O96013); assay: Inhibition of PAK4 (unknown origin) at 10 uM
Chain of Serine/threonine-protein kinase PAK 4 (Homo sapiens) (O96013 whole entry, looked up): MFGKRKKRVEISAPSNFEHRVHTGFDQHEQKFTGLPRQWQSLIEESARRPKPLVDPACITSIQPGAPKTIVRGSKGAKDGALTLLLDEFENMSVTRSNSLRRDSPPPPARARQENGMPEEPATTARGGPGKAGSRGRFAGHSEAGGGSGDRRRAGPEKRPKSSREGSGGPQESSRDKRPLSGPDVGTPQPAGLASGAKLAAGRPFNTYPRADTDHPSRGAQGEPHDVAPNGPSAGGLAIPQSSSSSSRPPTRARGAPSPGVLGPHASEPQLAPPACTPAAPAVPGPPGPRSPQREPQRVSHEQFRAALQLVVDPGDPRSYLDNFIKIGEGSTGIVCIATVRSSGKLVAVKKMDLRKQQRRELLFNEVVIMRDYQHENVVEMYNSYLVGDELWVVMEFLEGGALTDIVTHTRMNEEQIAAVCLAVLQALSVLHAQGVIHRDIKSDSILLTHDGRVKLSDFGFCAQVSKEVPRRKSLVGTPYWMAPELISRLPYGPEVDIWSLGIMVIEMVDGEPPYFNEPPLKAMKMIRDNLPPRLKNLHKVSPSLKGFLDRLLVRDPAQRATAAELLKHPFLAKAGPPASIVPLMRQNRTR

[7] = molecular target: T2, Aurora kinase A (Homo sapiens) (UniProt O14965); assay: Inhibition of aurora-A (unknown origin) at 10 uM
T2 sequence (whole entry): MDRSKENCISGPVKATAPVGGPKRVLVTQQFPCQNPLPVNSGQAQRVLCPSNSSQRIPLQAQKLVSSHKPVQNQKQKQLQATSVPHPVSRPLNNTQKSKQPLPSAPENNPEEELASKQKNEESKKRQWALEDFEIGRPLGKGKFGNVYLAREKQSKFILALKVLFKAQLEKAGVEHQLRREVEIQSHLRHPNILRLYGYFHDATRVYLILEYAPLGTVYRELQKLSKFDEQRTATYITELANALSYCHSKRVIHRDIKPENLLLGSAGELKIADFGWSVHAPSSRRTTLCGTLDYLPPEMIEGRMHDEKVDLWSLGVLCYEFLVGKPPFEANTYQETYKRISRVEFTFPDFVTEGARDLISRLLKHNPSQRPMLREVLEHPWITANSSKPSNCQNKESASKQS

[8] = molecular target: T3, Tyrosine-protein kinase JAK3 (Homo sapiens) (UniProt P52333); assay: Inhibition of JAK3 (unknown origin) at 10 uM
T3 sequence (whole entry): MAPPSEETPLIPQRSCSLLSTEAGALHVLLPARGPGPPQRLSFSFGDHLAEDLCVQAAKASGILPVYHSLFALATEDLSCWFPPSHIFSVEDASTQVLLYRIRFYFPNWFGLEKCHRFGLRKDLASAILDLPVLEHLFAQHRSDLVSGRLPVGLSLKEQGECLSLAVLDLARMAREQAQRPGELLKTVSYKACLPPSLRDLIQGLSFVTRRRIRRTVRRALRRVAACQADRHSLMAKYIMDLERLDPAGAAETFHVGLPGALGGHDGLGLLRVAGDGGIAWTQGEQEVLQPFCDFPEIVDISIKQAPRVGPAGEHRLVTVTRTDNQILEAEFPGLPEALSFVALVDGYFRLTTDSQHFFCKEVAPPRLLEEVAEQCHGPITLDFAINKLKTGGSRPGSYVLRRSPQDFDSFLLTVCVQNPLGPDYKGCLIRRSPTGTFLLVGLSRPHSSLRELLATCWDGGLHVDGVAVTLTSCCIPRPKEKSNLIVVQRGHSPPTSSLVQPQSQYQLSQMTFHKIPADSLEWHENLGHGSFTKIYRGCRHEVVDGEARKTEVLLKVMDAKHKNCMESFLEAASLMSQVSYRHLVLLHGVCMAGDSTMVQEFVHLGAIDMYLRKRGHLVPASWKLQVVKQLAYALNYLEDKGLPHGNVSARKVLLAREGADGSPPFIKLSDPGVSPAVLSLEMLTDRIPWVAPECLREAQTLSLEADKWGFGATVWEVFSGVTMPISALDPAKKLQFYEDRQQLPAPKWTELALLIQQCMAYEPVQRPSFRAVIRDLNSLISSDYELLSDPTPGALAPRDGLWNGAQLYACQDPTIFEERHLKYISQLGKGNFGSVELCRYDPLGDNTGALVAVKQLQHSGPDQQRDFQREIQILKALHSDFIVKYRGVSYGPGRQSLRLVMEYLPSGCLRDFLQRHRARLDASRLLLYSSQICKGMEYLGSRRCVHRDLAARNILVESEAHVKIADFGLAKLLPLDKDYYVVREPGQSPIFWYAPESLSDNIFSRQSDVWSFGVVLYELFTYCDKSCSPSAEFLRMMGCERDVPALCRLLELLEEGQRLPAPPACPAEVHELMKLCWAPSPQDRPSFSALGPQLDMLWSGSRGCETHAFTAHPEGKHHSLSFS

[9] = molecular target: Tyrosine-protein kinase JAK2 (Homo sapiens) (UniProt O60674); assay: Inhibition of JAK2 (unknown origin) at 10 uM
Chain of Tyrosine-protein kinase JAK2 (Homo sapiens) (O60674 whole entry): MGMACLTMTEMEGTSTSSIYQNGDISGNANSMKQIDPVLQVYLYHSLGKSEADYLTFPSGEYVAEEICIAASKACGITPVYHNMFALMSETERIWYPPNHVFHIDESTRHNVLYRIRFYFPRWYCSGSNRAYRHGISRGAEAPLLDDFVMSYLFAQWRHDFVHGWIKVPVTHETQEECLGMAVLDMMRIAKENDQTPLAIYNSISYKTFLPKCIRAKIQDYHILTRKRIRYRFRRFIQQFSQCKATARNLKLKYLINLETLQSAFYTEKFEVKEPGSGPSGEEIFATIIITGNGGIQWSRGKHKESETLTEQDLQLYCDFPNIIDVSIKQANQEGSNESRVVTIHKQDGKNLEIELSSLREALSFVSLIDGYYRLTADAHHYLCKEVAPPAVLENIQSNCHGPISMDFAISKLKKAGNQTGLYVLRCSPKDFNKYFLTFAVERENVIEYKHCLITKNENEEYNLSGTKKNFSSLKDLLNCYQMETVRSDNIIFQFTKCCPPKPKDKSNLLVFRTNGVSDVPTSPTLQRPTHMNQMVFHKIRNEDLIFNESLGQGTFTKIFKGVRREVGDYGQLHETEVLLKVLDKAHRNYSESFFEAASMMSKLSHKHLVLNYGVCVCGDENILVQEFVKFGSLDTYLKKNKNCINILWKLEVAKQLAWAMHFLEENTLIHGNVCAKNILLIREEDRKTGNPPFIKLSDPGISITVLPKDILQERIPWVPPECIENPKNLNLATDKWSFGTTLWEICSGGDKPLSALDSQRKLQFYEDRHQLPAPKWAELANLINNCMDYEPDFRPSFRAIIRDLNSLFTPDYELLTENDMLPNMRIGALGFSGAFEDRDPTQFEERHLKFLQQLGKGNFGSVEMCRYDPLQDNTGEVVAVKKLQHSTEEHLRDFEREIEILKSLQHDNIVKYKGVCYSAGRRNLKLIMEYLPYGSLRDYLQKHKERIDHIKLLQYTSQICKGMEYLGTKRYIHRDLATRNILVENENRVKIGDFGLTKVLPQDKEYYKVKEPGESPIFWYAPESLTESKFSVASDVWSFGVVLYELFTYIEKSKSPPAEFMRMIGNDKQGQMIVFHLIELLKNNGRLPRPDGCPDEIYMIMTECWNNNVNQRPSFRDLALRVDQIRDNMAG

[10] = Tmax in Sprague-Dawley rat at 5 mg/kg, iv; type: ADME, organism-based; conditions: in vivo
[11] = Cmax in Sprague-Dawley rat at 5 mg/kg, iv; type: ADME, organism-based; design: dose 5 mg/kg, route intravenous; conditions: in vivo
[12] = Terminal half life in Sprague-Dawley rat at 5 mg/kg, iv; type: ADME, organism-based; conditions: in vivo, read-out: beta t1/2 (converted)
[13] = AUC (0 to t) in Sprague-Dawley rat at 5 mg/kg, iv; type: ADME, organism-based; conditions: in vivo
[14] = AUC (0 to infinity) in Sprague-Dawley rat at 5 mg/kg, iv; type: ADME, organism-based; design: dose 5 mg/kg, route intravenous, time infinity; conditions: in vivo
[15] = Mean residence time in Sprague-Dawley rat at 5 mg/kg, iv; type: ADME, organism-based; conditions: in vivo
[16] = Systemic plasma clearance in Sprague-Dawley rat at 5 mg/kg, iv; type: ADME, organism-based
[17] = Volume of distribution at steady state in Sprague-Dawley rat at 5 mg/kg, iv; type: ADME, organism-based; conditions: in vivo, read-out: Vdss
[18] = Tmax in Sprague-Dawley rat at 5 mg/kg, po; type: ADME, organism-based; conditions: in vivo
[19] = Cmax in Sprague-Dawley rat at 5 mg/kg, po; type: ADME, organism-based; design: dose 5 mg/kg, route oral; conditions: in vivo
[20] = Terminal half life in Sprague-Dawley rat at 5 mg/kg, po; type: ADME, organism-based; conditions: in vivo, read-out: beta t1/2 (converted)
[21] = AUC (0 to t) in Sprague-Dawley rat at 5 mg/kg, po; type: ADME, organism-based; conditions: in vivo
[22] = AUC (0 to infinity) in Sprague-Dawley rat at 5 mg/kg, po; type: ADME, organism-based; design: dose 5 mg/kg, time infinity, route oral; conditions: in vivo
[23] = Mean residence time in Sprague-Dawley rat at 5 mg/kg, po; type: ADME, organism-based; conditions: in vivo
[24] = Oral bioavailability in Sprague-Dawley rat at 5 mg/kg; type: ADME, organism-based; conditions: in vivo

T1 sequence (P29597 whole entry): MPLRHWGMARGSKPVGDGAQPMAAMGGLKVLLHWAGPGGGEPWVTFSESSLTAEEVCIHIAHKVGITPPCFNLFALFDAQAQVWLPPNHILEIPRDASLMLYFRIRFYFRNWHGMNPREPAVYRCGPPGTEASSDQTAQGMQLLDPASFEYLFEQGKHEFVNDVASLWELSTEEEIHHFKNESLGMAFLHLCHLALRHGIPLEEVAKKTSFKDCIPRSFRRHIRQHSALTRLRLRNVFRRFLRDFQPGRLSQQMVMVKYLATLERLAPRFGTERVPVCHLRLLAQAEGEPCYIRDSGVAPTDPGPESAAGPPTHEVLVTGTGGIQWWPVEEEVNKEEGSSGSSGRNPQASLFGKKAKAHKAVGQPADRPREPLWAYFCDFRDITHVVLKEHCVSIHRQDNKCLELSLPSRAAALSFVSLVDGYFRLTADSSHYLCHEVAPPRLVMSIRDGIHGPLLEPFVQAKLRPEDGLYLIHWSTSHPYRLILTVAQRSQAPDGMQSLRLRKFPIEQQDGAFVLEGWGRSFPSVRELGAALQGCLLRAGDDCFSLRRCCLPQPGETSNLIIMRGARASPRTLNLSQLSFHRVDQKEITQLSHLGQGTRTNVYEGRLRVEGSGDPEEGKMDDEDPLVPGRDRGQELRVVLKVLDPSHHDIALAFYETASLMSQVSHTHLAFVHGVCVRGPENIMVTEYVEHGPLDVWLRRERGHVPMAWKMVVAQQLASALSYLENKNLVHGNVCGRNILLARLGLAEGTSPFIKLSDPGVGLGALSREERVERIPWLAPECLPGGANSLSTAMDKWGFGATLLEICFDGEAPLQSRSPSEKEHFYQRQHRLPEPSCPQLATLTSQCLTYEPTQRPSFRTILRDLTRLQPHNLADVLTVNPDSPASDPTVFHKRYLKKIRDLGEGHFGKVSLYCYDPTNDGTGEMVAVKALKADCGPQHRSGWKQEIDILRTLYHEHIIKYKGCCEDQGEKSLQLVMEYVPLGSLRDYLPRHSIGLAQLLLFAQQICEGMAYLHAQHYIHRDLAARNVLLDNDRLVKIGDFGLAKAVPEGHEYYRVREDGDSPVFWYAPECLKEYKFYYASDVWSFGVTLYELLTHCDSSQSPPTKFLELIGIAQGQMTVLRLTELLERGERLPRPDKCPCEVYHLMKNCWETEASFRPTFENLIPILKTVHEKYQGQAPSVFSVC

- inhibition [1]: 97%
- inhibition [2]: 92%
- inhibition [3]: 60%
- inhibition [4]: 83%
SMILES: CC(C)c1nn(C)cc1-c1nc2cc(Br)cnc2[nH]1

- inhibition [4]: < 30%
SMILES: CC(C)c1n[nH]cc1-c1nc2cc(Br)cnc2[nH]1

- inhibition [4]: 38%
SMILES: CC(C)c1nn(-c2ccccc2)cc1-c1nc2cc(Br)cnc2[nH]1

- inhibition [4]: 99%
- IC50 [5]: 10 nM
- inhibition [6]: < 50%
- inhibition [7]: > 90%
- inhibition [8]: > 90%
- inhibition [9]: > 90%
- Tmax [10]: 4.8 min
- Cmax [11]: 1340 ng/mL
- half-life [12]: 49.8 min
- AUC(0-t) [13]: 1420 ng·h/mL
- AUC(0-inf) [14]: 1430 ng·h/mL
- MRT [15]: 47.4 min
- clearance [16]: 59 mL/min/kg
- Vd [17]: 2.76 L/kg
- Tmax [18]: 19.8 min
- Cmax [19]: 70 ng/mL
- half-life [20]: 105 min
- AUC(0-t) [21]: 80 ng·h/mL
- AUC(0-inf) [22]: 90 ng·h/mL
- MRT [23]: 1.7 h
- bioavailability [24]: 6.07%
SMILES: CC(C)c1nn(C)cc1-c1nc2c(N3CCN(Cc4cccnc4)CC3)c(Br)cnc2[nH]1
